Where no end group is shown, it is not given here.
Assays:
[1] = system: Escherichia coli ATCC 25922; conditions: E. coli ATCC 25922; cited from earlier work
Experimental: Contrasting to the simulation results of W3_p1 and W3_p2, W3_db5 has only one Trp (W3) inserted into the bacterial membrane by the end of 1 μs simulation (Supplementary Movie 1 and Supplementary Fig. 3). To further examine the bactericidal and anti-fungal activities of these AMPs, we measure the minimal inhibitory concentration (MIC90) at which the growth of 90% of the pathogenic fungus Candida albicans SC5314 and Escherichia coli ATCC 25922 can be inhibited. Experiments are performed in pentaplicate and MIC90 is determined as the majority results of the 5 replicates (see “Methods”). It is wor ...

[2] = system: Escherichia coli ATCC 25922; conditions: ATCC 25922, 18 h; for E. coli ATCC 25922 killed in the MIC90 experiments: 30
Experimental: (§1) Contrasting to the simulation results of W3_p1 and W3_p2, W3_db5 has only one Trp (W3) inserted into the bacterial membrane by the end of 1 μs simulation (Supplementary Movie 1 and Supplementary Fig. 3). […] Experiments are performed in pentaplicate and MIC90 is determined as the majority results of the 5 replicates (see “Methods”). It is worth mentioning that we could reproduce the reported MIC90 values for three published AMPs when using the same culture protocol to culture E. coli ATCC 25922. […] The latter result is consistent with the MD-based natural insertion results (Supplementary Fig. 3).
(§2) To measure the antimicrobial activity of peptides, MICs were determined by the broth-dilution assay as described in Clinical and Laboratory Standards Institute (CLSI) documents M27-A3 for yeasts[63] and M07-A9 for bacteria[64] with minor modifications. Briefly, E. coli ATCC 25922 and C. albicans SC5314 were recovered from frozen stock by growing overnight at 37 °C on LB (Luria-Bertani) and YPD (Yeast Extract-Peptone-Dextrose) agar plates, separately. A single colony of E. coli was inoculated into 5 ml LB medium and grown overnight at 37 °C with shaking at 220 rpm. Cells were then diluted into MHB (Mueller–Hinton broth) at 1:100, and grew until the optical density at 600 nm (OD600) reached 0.4 to 0.8. For C. albicans SC5314, a single colony was inoculated in YPD broth and grown overnight at 30 °C with shaking at 180 rpm. Cells from the overnight culture were subcultured into fresh YPD and grew to mid-log phase. Finally, E. coli and C. albicans cells obtained from the above-described were diluted into MHB and LYM, a modified RPMI 1640 medium[65] to a concentration of ~5 × 10^5 cells/ml and ~4 × 10^4 cells/ml, respectively. To determine the MIC values, one hundred microliters of cells was placed in each well of a clear bottom 96-well microplate, followed by independently adding 100 μl peptides with different concentrations (in MHB or LYM). The final concentrations in the wells were 120, 60, 30, 15, 7.5, 3.75, and 1.88 μg/ml for peptides, ~2.5 × 10^5 cells/ml for E. coli and ~2 × 10^4 cells/ml for C. albicans. The plate was incubated at 37 °C with shaking at 220 rpm for 18 h (E. coli) and at 180 rpm for 24 h (C. albicans). The OD600 values were measured using a iMark^TM Microplate Absorbance Reader (Bio-Rad). The MIC90 value was determined by 90% reduction in growth compared with that of the peptide-free growth control. Experiments were performed in pentaplicate, and MIC90 was determined as the majority value out of 5 repeats.

[3] = cited from earlier work
Excerpt: It should be carefully noted that helicity percentage is also concentration-dependent. NMR-resolved structures are usually determined at a concentration of several mM, while CD spectra measure at a few tens of μM. It has been reported by several studies that the same helical peptide resolved by NMR (at high concentration) has a higher helicity percentage than that of the same measured by CD (at a lower concentration). For instance, an intragenic AMP (PDB ID: 6VLA) has a helicity percentage of 94% according to its NMR-resolved structure but 59% by CD[48]. Similarly, an AMP from Whiteleg shrimp ...

[4] = Circular dichroism, helicity percentage by DichroWeb; format: physicochemical; conditions: CD spectra 190 to 260 nm
Excerpt: We found W3_db5 adopts a higher helicity than W3_n2 that is found to be more helical than W3_n1 (Fig. 5), where W3_n1 has a helicity closest to Tat, a popular cell-penetrating peptide known to take a random coil structure. This low helicity is consistent with the fact that the “WGN WGG W” stretch in W3_n1 takes mostly coil and sheet structures in its original PDB file (PDB ID: 4F54). The online software DichroWeb[44] provides a helicity percentage prediction for Tat, W3_n1, W3_n2, W3_db5, W3_p1, W3_p2, and CM15 based on their spectra data over the wavelength 190 to 260 nm wavelength −6.5, 2.0, 18.3, 60.2, 57.8, 51.2, and 54%, respectively.
Fig. 5 The CD spectra from 190 to 260 nm for all the examined peptides in the study where CM15[1],[50] is a known helical AMP and Tat, a cell-penetrating peptide (YGRKKRRQRRR) extracted from the transactivating transcriptional activator, is in a random coil structure. All the experimental data are provided as a Source data file.

human RBCs = format: cell-based
Experimental: The hemolytic toxicity was determined by the hemolysis against human RBCs as in previous publication. First, RBCs from healthy donors were mixed with EDTA in the collecting tubes to inhibit the coagulation. Then the RBCs were washed for three repeats as follows—centrifugation at RCF 800 × g for 10 min, removal of the supernatant, and resuspension with PBS buffer. Such washed RBCs stock was finally diluted with a PBS buffer to be the 10% (v/v) RBCs solution for assays. Then total eight samples of various final concentrations (240, 120, 60, 30, 15, 7.5, 3.75, and 1.88 μg/ml) for each AMP in 96-well microplate were prepared by mixing 10% RBCs and diluted AMP solutions, respectively, at ratio 1:1 (v/v) into final volume 200 μl. All samples were placed under the condition of 37 °C for 1 h and then centrifuged at RCF 800 g for 10 min. Finally, all these supernatants from samples and controls were picked out for the measurement of optical density at the 450 nm wavelength. The data processing was performed to calculate the hemolytic percentage defined as [Asample − Acontrol−]/[Acontrol+ − Acontrol−], where Acontrol+ and Acontrol− are the measurement at wavelength 450 nm for the positive and negative controls, that are 100 μl 10% RBCs suspended in 100 μl PBS buffer with and without 2% (v/v) Triton X-100 (a known detergent to lyse the RBCs), respectively. The final hemolytic percentage for AMPs at various concentrations was determined by the mean values of three repeated experiments, and MHC5 value, defined as the minimal concentration of AMPs leading to at least 5% hemolysis of RBCs, can be determined.

Candida albicans SC5314 = conditions: SC5314, 24 h
Experimental: as §1, §2

| Substance | reported MIC [1] [µg/mL] | MIC90 vs. E. coli [2] | MIC90 vs. C. albicans (Candida albicans SC5314) [µg/mL] | also measured |
| --- | --- | --- | --- | --- |
| FKRIVQRIKDFLR-NH2 (C-terminus assumed) [FK13] | 27.5 | 25 µg/mL | – | – |
| KWKLFKKIGAVLKVL-NH2 (C-terminus assumed) [CM15] | 4.0 | – | – | helicity by NMR [3]: 80%; helicity percentage by CD [3]: 65%; helicity percentage (DichroWeb, from CD spectra) [4]: 54% |
| KKWLKWLKWLKKK [W3_p2] | – | 15 µg/mL | 7.5 | MHC5 (human RBCs): 90 µg/mL |
| KKWRKWLKWLAKK [W3_p1] | – | 15 µg/mL | 7.5 | MHC5 (human RBCs): 120 µg/mL |
| GLLKKIKWLL-NH2 (C-terminus assumed) [Anoplin-R5KT8W] | 15.1 | – | – | – |
| KKWGNWGGWRLKK [W3_n1] | – | >>120 μg/ml | – | E. coli ATCC 25922 killed in the MIC90 experiments [2]: 2.5% |
| KKWKCWARWRLKK [W3_db5] | – | 30 µg/mL | 3.75 | hemolysis reduction of human RBCs as compared to templates W3-p1 and W3-p2 (human RBCs): 20–40 folds |
| KKWKDWESWRLKK [W3_n2] | – | >>120 μg/ml | – | E. coli ATCC 25922 killed in the MIC90 experiments [2]: 9.5% |

Reference: publication PMC8748493, “Helical structure motifs made searchable for functional peptide design” (Nature Communications, 2022)
